Assay results taken from patent US20160166507A1, “NANOEMULSIONS OF HYDROPHOBIC PLATINUM DERIVATIVES” (NEMUCORE MEDICAL INNOVATIONS, INC., priority 2013, published 2016).

What was measured:
[1] = test system: SKOV-3 Ovarian Cancer Cells; assay: MTT cytotoxicity assay with combination index analysis; format: cell-based, human; conditions: for Degree of Combination Effect: Pt complex with CER
Experimental: In order to determine if the nanoemulsion formulations according to the disclosure produce a cytotoxic effect, the following experiments were done on SKOV3 cells.
A tetrazolium (MTT) assay was performed, which measures the activity of cellular enzymes that reduces the MTT dye to insoluble formazan. SKOV3 cells were treated with corresponding test nanoemulsions or control solutions as indicated below in Table VI. Polyethylenimine at 50 μg/ml was used as a positive control for cytotoxicity. The effect of cis-Pt in solution, nanoemulsion formulations, and EGFR-targeted nanoemulsion formulations of the disclosure on the viability of ovarian SKOV3 cells were studied and measured after 72 hr treatment. After the completion of treatment, cells were incubated with MTT reagent (50 μg/well) for 2 hr. The resulting formazan crystals were dissolved in dimethyl sulfoxide ([…]) and measured at 570 nm in the Plate reader (Synergy HT, Biotek Instruments, Winooski, Vt.).
Values are shown as mean±SD, n=8. All IC50 values were obtained by analyzing the MTT assays results using Graphpad Prism 5 scientific data analysis software.
The optimum concentration of multiple chemotherapeutic agents combined in the nanoemulsion formulations of the present disclosure can be determined by calculating the combination index from the dose response curves of the single agents (Chou (2006) Pharmacol. Rev. 58(3): 621-681). This method uses the isobologram equation below to determine combination index (CI): […]
where, “a” is the primary therapeutic IC50 in combination with secondary therapeutic at concentration “b.” “A” is the primary therapeutic IC50 without secondary therapeutic; and “B” is the secondary therapeutic IC50 in the absence of primary therapeutic. The CI represents the degree of interaction between two drugs regardless of mechanism. […]
For the nanoemulsion formulations of the present disclosure, the ratio of Pt:CER was determined in order to identify ratios that could reduce the IC50 of Pt.

[2] = test system: SKOV3 human ovary cancer cells; assay: In vivo therapeutic efficacy in mice injected ip with SKOV3 cells; design: species or system Nu/Nu female mice
Experimental: In order to determine if the nanoemulsion formulations according to the disclosure produce therapeutic efficacy against cancer in vivo, the following experiment was performed. Orthotropic tumors were developed in 30 Nu/Nu female mice, each weighing approximately 20 g (Charles River Laboratories, Cambridge, Mass.). The mice were injected intraperitoneally (ip) with 4×10^6 SKOV3 human ovary cancer cells (ATCC, Manassas, Va.) suspended in phosphate buffered saline100 μl PBS. The 30 mice were divided into 3 test groups of 10 individual mice. Each mouse was then dosed every 7 d for 5 wk with either nothing (control group) or 1 of 2 test compounds. The first test compound (cisplatin) was administered as a comparative sample in 5 mg/kg doses. The second test compound (EGFR-targeted nanoemulsion formulation containing Pt-MMA and ceramide in a 1:5 molar ratio) was administered in 3 cycles of 5 mg/kg platinum and an additional 2 cycles of 7.5 mg/kg platinum. The doses of Pt-MMA (21 mg/kg) and cis-Platin (5 mg/kg) were calculated so that animals received equivalent amounts of Pt. The survival time of each group of mice was determined and the median survival time (days) calculated using Graphpad Kaplan-Meyers survival analysis software on the basis of the observed survival time of each mouse.

[3] = cited from earlier work
[4] = dosed every 7 d for 5 wk, SKOV3, Nu/Nu mice

CCCCCCCCCCCCC/C=C/[C@H](O)[C@@H](CO)NC(=O)CCCCC [CER in Solution, C6-ceramide]
IC50 ([1]; Homo sapiens, SK-OV-3, SKOV-3 cells, MTT, 72 hr treatment, mean±SD, n=8, read-out: IC50 (nM), inhibition of growth): 10000 nM

N.N.[Cl][Pt][Cl] [Cisplatin in Solution, Cis-dichlorodiammine Pt (II)]
Median Survival ([2]; Kaplan-Meyers analysis, 10 mice per group): 28 days
Average Tumor Size at 21 Days (mm^3) [2, 4]: 640 ± 314 mm^3
Time for First Tumor to Reach 1000 mm^3 [2, 4]: 17 days

N.N.O=C([O-])C1(C(=O)[O-])CCC1.[Pt+2] [carboplatin]
half life (published values) [3]: 50.4 min

cis-Diamine Pt (II) Chloride Monomyristic Acid [Cisplatin-mono-myristate]
Degree of Combination Effect [1]: synergistically

cis-Diamine Pt (II) Chloride Monopalmitic Acid [Cisplatin-mono-palmitate]
Degree of Combination Effect [1]: synergistically
